Results on 26 molecules are retold here after patent publication US20140329858A1, “Cyclic Urea Derivatives As Androgen Receptor Antagonists” (priority 2011, published 2014).

The experiment deals with Vcap cells. In words: Dihydrotestosterone (DHT) mediated XTT cell proliferation assay for screening AR antagonists using Vcap cells. Format: cell-based. The conditions noted are these: for IC50: in the presence of 0.2 nM DHT, XTT readout on Day 10, IC50 curves from 8 concentrations. The procedure: Dihydrotestosterone (DHT) Mediated XTT Cell Proliferation Assay for Screening AR Antagonists Using Vcap cells
The Vcap cells (4×10^6 cells) were seeded in a T-75 flask containing DMEM with 15% FBS. After 72 hours, the media was removed; the cells were washed once and replaced with phenol red free DMEM containing 8% charcoal stripped serum. Then, the cells were starved in phenol red free DMEM with 8% charcoal stripped serum for 5 days. Following the starvation, the cells were harvested and seeded in 96 well plates (10×10^3 cells per well) in phenol red free DMEM with 8% charcoal stripped serum (Day 0). The cells were allowed to settle and on Day 4 they were treated with different concentrations of the compound (30 μM, 10 μM, 1 μM, 500 nM, 100 nM, 10 nM, 1 nM, 0.1 nM) in the presence of 0.2 nM DHT. DHT alone and a DMSO controls were also included. All treatments were done in triplicate. The drugs were replenished on Day 7 and the cells were allowed to grow for another 72 hours. On Day 10, the experiment was terminated by adding the XTT reagent (2,3-bis[2-methoxy-4-notro-5-sulfophenyl]-2H-tetrazolium-5-caboxyanilide inner salt) dissolved in Phenol red free DMEM without serum. The cells with the XTT reagents were incubated inside the CO2 incubator for 3-4 hours for color development; after which the readings were taken at […] using a spectramax Gemini plate reader.
Data fitting: The IC50 curves for the 8 compound concentrations were calculated with GraphPad Prism software using the sigmoidal dose-response function. (Graphpad Software, San Diego, Calif., USA).

Broadly, the IC50 is the concentration that gives 50% inhibition. `Cc1ccncc1N1C(=O)N(c2ccc(C#N)c(C(F)(F)F)c2)[C@H]2CCCC[C@@H]21` [Example 63, 4-((3aS,7aS)-3-(4-methylpyridin-3-yl)-2-oxooctahydro-1H-benzo[d]imidazol-1-yl)-2-(trifluoromethyl)benzonitrile]: the IC50 (Homo sapiens, 240 h) was found to be 2.29 µM.
In the case of `CNC(=O)c1ccc(N2C(=O)N(c3ccc(C#N)c(C(F)(F)F)c3)[C@@H]3CCCC[C@H]32)cn1` (racemic) [Example 53, Trans-5-(3-(4-cyano-3-(trifluoromethyl)phenyl)-2-oxooctahydro-1H-benzo[d]imidazol-1-yl)-N-methylpicolinamide (±)], under “0.2 nM DHT, effect reached at high conc”, the “XTT: only 65% @ high conc” value turned out to be 65%. For the same molecule, the IC50 (Homo sapiens, 240 h) amounted to 0.165 µM.
Consider `N#Cc1ccc(N2C(=O)N(c3cccnc3F)[C@@H]3CCCC[C@H]32)cc1C(F)(F)F` (racemic) [Example 59, Trans-4-(3-(2-fluoropyridin-3-yl)-2-oxooctahydro-1H-benzo[d]imidazol-1-yl)-2-(trifluoromethyl)benzonitrile (±)], for which, for the setting “Homo sapiens, 240 h”, the half-inhibitory concentration (IC50) stood at 1.08 µM.
Consider `Cc1cc(N2C(=O)N(c3ccc(C#N)c(C(F)(F)F)c3)[C@H]3CCCC[C@@H]32)ccc1C(=O)O` [Example 69, 4-((3aS,7aS)-3-(4-cyano-3-(trifluoromethyl)phenyl)-2-oxooctahydro-1H-benzo[d]imidazol-1-yl)-2-methylbenzoic acid], for which the IC50 (Homo sapiens, 240 h) was greater than 10 µM.
On the same count and under the same terms, the result for `N#Cc1ccc(N2C(=O)N(c3ccc(N)c(F)c3)[C@@H]3CCCC[C@H]32)cc1C(F)(F)F` (racemic) [Example 15, Trans-(4-(-3-(4-amino-3-fluorophenyl)-2-oxooctahydro-1H-benzo[d]imidazol-1-yl)-2-(trifluoromethyl)benzonitrile (±)] reads 0.823 µM; that for `N#Cc1ccc(N2C(=O)N(c3ccccc3)[C@@H]3CCCC[C@H]32)cc1C(F)(F)F` (racemic) [Example 5, Trans-4-(2-oxo-3-phenyloctahydro-1H-benzo[d]imidazol-1-yl)-2-(trifluoromethyl)benzonitrile (±)], 1.02 µM; that for `N#Cc1ccc(N2C(=O)N(c3ccc(C(N)=O)nc3)[C@H]3CCCC[C@@H]32)cc1C(F)(F)F` [Example 55, 5-((3aS,7aS)-3-(4-cyano-3-(trifluoromethyl)phenyl)-2-oxooctahydro-1H-benzo[d]imidazol-1-yl)picolinamide], 0.174 µM.
Take `CC(=O)c1ccc(N2C(=O)N(c3ccc(C#N)c(C(F)(F)F)c3)[C@H]3CCCC[C@@H]32)cc1F` [Example 45, 4-((3aS,7aS)-3-(4-acetyl-3-fluorophenyl)-2-oxooctahydro-1H-benzo[d]imidazol-1-yl)-2-(trifluoromethyl)benzonitrile]: the IC50 (Homo sapiens, 240 h) was 1.02 µM.
For `CNC(=O)c1ccc(N2C(=O)N(c3ccc(C#N)c(C(F)(F)F)c3)[C@@H]3CCOC[C@H]32)cc1F` (racemic) [Example 73, Trans-4-(1-(4-Cyano-3-(trifluoromethyl)phenyl)-2-oxohexahydropyrano[3,4-d]imidazol-3(2H)-yl)-2-fluoro-N-methylbenzamide (±)], for the setting “Homo sapiens, 240 h”, the concentration for half-maximal inhibition (IC50) was 2.55 µM.
The same measure, in the same setting: as for `N#Cc1ccc(N2C(=O)N(c3ccc(C(=O)NC(CO)CO)c(F)c3)[C@H]3CCCC[C@@H]32)cc1C(F)(F)F` [Example 37, 4-((3aS,7aS)-3-(4-cyano-3-(trifluoromethyl)phenyl)-2-oxooctahydro-1H-benzo[d]imidazol-1-yl)-N-(1,3-dihydroxypropan-2-yl)-2-fluorobenzamide], the figure is 6.08 µM; as for `CNC(=O)c1ccc(N2C(=O)N(c3ccc(C#N)c(C(F)(F)F)c3)[C@@H]3CC(OC)CC[C@H]32)cc1F` (mixture of isomers) [Example 85, Trans-4-(3-(4-cyano-3-(trifluoromethyl)phenyl)-5-methoxy-2-oxooctahydro-1H-benzo[d]imidazol-1-yl)-2-fluoro-N-methylbenzamide (±)], 2.62 µM.
`N#Cc1ccc(N2C(=O)N(c3ccnc(F)c3)[C@@H]3CCCC[C@H]32)cc1C(F)(F)F` (relative stereo) [Example 10b, Trans-4-(3-(2-fluoropyridin-4-yl)-2-oxooctahydro-1H-benzo[d]imidazol-1-yl)-2-(trifluoromethyl)benzonitrile (−)]: the IC50 amounted to 0.28 µM.
For `CNC(=O)c1ccc(C2=C[C@@H]3[C@@H](CC2)N(c2ccc(C#N)c(C(F)(F)F)c2)C(=O)N3C)cc1F` (racemic) [Example 88, Trans-4-(1-(4-cyano-3-(trifluoromethyl)phenyl)-3-methyl-2-oxo-2,3,3a,6,7,7a-hexahydro-1H-benzo[d]imidazol-5-yl)-2-fluoro-N-methylbenzamide (±)], the IC50 (Homo sapiens, 240 h) is 0.218 µM.
In the case of `N#Cc1ccc(N2C(=O)N(c3ccccc3)[C@@H]3CCCC[C@H]32)cc1C(F)(F)F` (relative stereo) [Example 5a, Trans-4-(2-oxo-3-phenyloctahydro-1H-benzo[d]imidazol-1-yl)-2-(trifluoromethyl)benzonitrile (+)], the IC50 came out at 1.76 µM.
Regarding `CNC(=O)c1ccc(N2C(=O)N(c3ccc(C#N)c(C(F)(F)F)c3)[C@H]3CCCC[C@@H]32)cn1` [Example 54, 5-((3aS,7aS)-3-(4-cyano-3-(trifluoromethyl)phenyl)-2-oxooctahydro-1H-benzo[d]imidazol-1-yl)-N-methylpicolinamide], the 50% inhibitory concentration (IC50) (Homo sapiens, 240 h) turned out to be 0.245 µM.
The same measure, in the same setting: the result for `N#Cc1ccc(N2C(=O)N(c3ccc(C(N)=O)cc3)[C@H]3CCCC[C@@H]32)cc1C(F)(F)F` [Example 66, 4-((3aS,7aS)-3-(4-cyano-3-(trifluoromethyl)phenyl)-2-oxooctahydro-1H-benzo[d]imidazol-1-yl)benzamide] reads 0.261 µM.
Turning to `CNC(=O)c1ccc(N2C(=O)N(c3ccc(C#N)c(C(F)(F)F)c3)[C@@H]3COCC[C@H]32)cc1F` (relative stereo) [Example 71b, Trans-4-{3-[4-Cyano-3-(trifluoromethyl)phenyl]-2-oxo-octahydropyrano[3,4-d]imidazolidin-1-yl}-2-fluoro-N-methylbenzamide (−)], the IC50 was determined as 0.379 µM.
Turning to `N#Cc1ccc(N2C(=O)N(c3cc(Cl)cc(Cl)c3)[C@@H]3CCCC[C@H]32)cc1C(F)(F)F` (racemic) [Example 43, Trans-4-(3-(3,5-dichlorophenyl)-2-oxooctahydro-1H-benzo[d]imidazol-1-yl)-2-(trifluoromethyl)benzonitrile (±)], the half-inhibitory concentration (IC50) (Homo sapiens, 240 h) amounted to 0.339 µM.
Same read-out and setting: as for `N#Cc1ccc(N2C(=O)N(c3ccc(C(=O)NOCC4CCC4)c(F)c3)[C@@H]3CCCC[C@H]32)cc1C(F)(F)F` (racemic) [Example 21, Trans-4-(3-(4-cyano-3-(trifluoromethyl)phenyl)-2-oxooctahydro-1H-benzo[c]im-idazol-1-yl)-N-(cyclobutylmethoxy)-2-fluorobenzamide (±)], the figure is 0.255 µM; as for `N#Cc1ccc(N2C(=O)N(c3ccc(C(N)=O)c(F)c3)[C@@H]3CCOC[C@H]32)cc1C(F)(F)F` (racemic) [Example 76, Trans-4-(3-(4-cyano-3-(trifluoromethyl)phenyl)-2-oxohexahydropyrano[3,4-d]imidazol-1(6H)-yl)-2-fluorobenzamide (±)], 2.54 µM; as for `CNC(=O)c1ccc(C2=C[C@H]3[C@@H](CC2)N(c2ccc(C#N)c(C(F)(F)F)c2)C(=O)N3C)cc1F` (racemic) [Example 89, Cis-4-(1-(4-cyano-3-(trifluoromethyl)phenyl)-3-methyl-2-oxo-2,3,3a,6,7,7a-hexahydro-1H-benzo[d]imidazol-5-yl)-2-fluoro-N-methylbenzamide (±)], 1.01 µM.
For `CONC(=O)c1ccc(N2C(=O)N(c3ccc(C#N)c(C(F)(F)F)c3)[C@@H]3CCCC[C@H]32)cc1F` (racemic) [Example 18, Trans-4-(3-(4-cyano-3-(trifluoromethyl)phenyl)-2-oxooctahydro-1H-benzo[d]im-idazol-1-yl)-2-fluoro-N-methoxybenzamide (±)], the IC50 (Homo sapiens, 240 h) came out at 0.374 µM.
Regarding `CCOC(=O)c1ccc(N2C(=O)N(c3ccc(C#N)c(C(F)(F)F)c3)[C@@H]3CCCC[C@H]32)cc1F` (racemic) [Example 6, Trans-ethyl-4-(3-(4-cyano-3-trifluoromethyl)phenyl)-2-oxooctahydro-1H-benzo[d]imidazol-1-yl)-2-fluorobenzoate (±)], the IC50 (Homo sapiens, 240 h) is greater than 10 µM.
For `CNC(=O)c1ccc(N2C(=O)N(c3ccc(C#N)c(C(F)(F)F)c3)[C@@H]3CC=CC[C@H]32)cc1F` (relative stereo) [Example 83b], the IC50 worked out at 0.0319 µM.
Regarding `Cc1n[nH]cc1N1C(=O)N(c2ccc(C#N)c(C(F)(F)F)c2)[C@@H]2CCCC[C@H]21` (racemic) [Example 52, trans-4-(3-(3-methyl-1H-pyrazol-4-yl)-2-oxooctahydro-1H-benzo[d]imidazol-1-yl)-2-(trifluoromethyl)benzonitrile (±)], the half-maximal inhibitory concentration (IC50) (Homo sapiens, 240 h) is greater than 10 µM.
Take `N#Cc1ccc(N2C(=O)N(c3ccc(S(N)(=O)=O)c(F)c3)[C@@H]3CCCC[C@H]32)cc1C(F)(F)F` (racemic) [Example 67, Trans-4-(3-(4-cyano-3-(trifluoromethyl)phenyl)-2-oxooctahydro-1H-benzo[d]imidazol-1-yl)-2-fluorobenzenesulfonamide (±)]: where the note is “Homo sapiens, 240 h”, the IC50 came out at 1.09 µM.
